Laboratory results as given in patent US7276337B2, “Compositions and methods for visual ribonuclease detection assays” (Integrated DNA Technologies, Inc., priority 2000, dated 2007).

Assays:
Ribonuclease A = target: T1, Ribonuclease A (Bos taurus, UniProt P61823); assay: Visual detection ribonuclease assay, cleavage of Substrate ODN by RNase A; type: biochemical, mammalian; design: key to Sensitivity of Substrate ODN to Ribonuclease A, relative signal intensity: +++ = maximum intensity; ++ = moderate intensity; + = faint but above background; − = negative (identical to background); conditions: Substrate 500 nM; for Sensitivity of Substrate ODN to Ribonuclease A, relative signal intensity: visual inspection, UV excitation, 37° C. 60 minutes
T1 sequence (P61823 27-150): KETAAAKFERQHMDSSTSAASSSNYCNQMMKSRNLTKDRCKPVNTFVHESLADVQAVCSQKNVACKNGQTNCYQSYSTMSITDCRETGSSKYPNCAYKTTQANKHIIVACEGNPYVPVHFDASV
In short: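 Fluorogenic substrate oligonucleotides (500 nM for visual, 50 nM for fluorometric read) cut by serially diluted RNase A, 10 min at room temperature or 60 min at 37° C. Cleavage judged by fluorescence under UV excitation, scored +++ to − by relative intensity.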

Ribonuclease T1 = target: T2, Ribonuclease T1 (Aspergillus oryzae, UniProt P00651); assay: Visual detection ribonuclease assay, cleavage of Substrate ODN by RNase T1; type: biochemical; design: key to Sensitivity of Substrate ODN to Ribonuclease T1, relative signal intensity: +++ = maximum intensity; ++ = moderate intensity; + = faint but above background; − = negative (identical to background); conditions: Substrate 500 nM; for Sensitivity of Substrate ODN to Ribonuclease T1, relative signal intensity: visual inspection, UV excitation, 37° C. 60 minutes
T2 sequence (P00651 27-130): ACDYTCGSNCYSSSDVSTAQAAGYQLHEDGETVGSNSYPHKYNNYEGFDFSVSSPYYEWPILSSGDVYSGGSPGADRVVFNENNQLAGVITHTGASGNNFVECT
In short: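 Substrate ODNs at 500 nM in 1× Assay Buffer; RNase T1 serially diluted to final 0.001, 0.0001 and 0.00001 units/ml. After incubation (60 min at 37 °C, or 10 min at room temperature), fluorescence under UV excitation was inspected by eye and scored +++, ++, + or − by relative intensity.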

[1] = tested on: RNase A, RNase 1, and RNase T1; assay: Substrate optimization in ribonuclease assays (visual and fluorometric detection); type: biochemical; conditions: 28 Substrate ODNs compared
Protocol: Nuclease assays were conducted using the method of the invention with both visual and fluorometric detection methods. Substrates were individually mixed in 1× Assay Buffer at a concentration of 50 nM (50 pmoles oligonucleotide in 1 ml volume) for fluorometric detection or at a concentration of 500 nM (50 pmoles of oligonucleotide in 100 ul volume) for visual detection. Test nucleases were added to respective Assay Mixes beginning at 1 ul stock reagent and proceeding with a 1:10 serial dilution until undetectable. Reaction mixes were incubated at 37° C. for 60 minutes. Fluorometric detection was performed as outlined in Example 2. Visual detection was performed as outlined in Example 1.
Different Substrates were examined for reactivity with RNase A, RNase 1, and RNase T1. A Substrate composition that contains all 4 ribonucleotide bases in an optimized sequence might be sensitive to most ribonuclease activities and could function as a stand-alone reagent for the Assay. Alternatively, a mix of Substrates could be used (for example, wherein one Substrate contains adenosine, one contains guanosine, one contains uridine, and one contains cytosine residues). Both possibilities were tested. […] Substrates having different base sequence were compared for sensitivity. […] Sequence dependence for RNase T1 was pronounced with cleavage preference being ‘gg’>‘gc’>‘ga’>‘gu’. […]

[2] = final dilution factors of stock 10^−2 to 10^−7, room temperature 10 minutes

## 5′ Fluorescein-AauggcA-QSY-7 3′ (NAAUGGCAN; 5' fluorescein and 3' QSY-7 labels, nucleotide chemistry not given here) [SEQ ID NO:30]
Ribonuclease A; RNase A 10 pg/ml
  Sensitivity of Substrate ODN to Ribonuclease A, relative signal intensity: ++
Ribonuclease A; RNase A 100 pg/ml
  Sensitivity of Substrate ODN to Ribonuclease A, relative signal intensity: +++
Ribonuclease A; RNase A 1 ng/ml
  Sensitivity of Substrate ODN to Ribonuclease A, relative signal intensity: +++
Ribonuclease A; RNase A 1.0 ug/ml, room temperature 10 minutes, UV light source
  Fluorescence emission by visual inspection in the presence of RNase: visibly bright
Ribonuclease A; [2]
  Detection of RNase A activity by visual examination: clearly detectable
Ribonuclease A; no nuclease, room temperature 10 minutes, UV light source
  Fluorescence emission by visual inspection in the absence of RNase (control reaction): visually transparent (dark)
Ribonuclease T1; RNase T1 10^−3 units/ml
  Sensitivity of Substrate ODN to Ribonuclease T1, relative signal intensity: +++
Ribonuclease T1; RNase T1 10^−4 units/ml
  Sensitivity of Substrate ODN to Ribonuclease T1, relative signal intensity: +++
Ribonuclease T1; RNase T1 10^−5 units/ml
  Sensitivity of Substrate ODN to Ribonuclease T1, relative signal intensity: +++
Ribonuclease T1; [2]
  Detection of RNase T1 activity by visual examination: clearly detectable
[1]
  Relative activity / sensitivity among Substrates tested: most active
